Measured values from patent US20030073731A1, “Compositions and methods of the use thereof achiral analogues of CC-1065 and the duocarmycins” (priority 2000, published 2003).
Where two headings read alike, the source gives them in different places.

Experiments:
LOX IMVI [1] = system: LOX IMVI
SF-539 [2] = system: SF-539
NCI-H226 [3] = system: NCI-H226
CAKI-1 [4] = system: CAKI-1
DU-145 = assay type: cell-based, human
SF-268 [5] = system: SF-268
MCF7 [6] = system: MCF7
CCRF-CEM = experiment: cells; settings: Homo sapiens
[7] = system: panel of 60 human cancer cell lines; settings: 48 hour exposure
MCF7 [8] = experiment: cells; settings: Homo sapiens
SK-OV-3 = experiment: cells; settings: Homo sapiens
TK-10 = experiment: cells; settings: Homo sapiens
SK-MEL-5 = experiment: cells; settings: Homo sapiens
SF-268 [9] = experiment: cells; settings: Homo sapiens
LOX IMVI [10] = experiment: cells; settings: Homo sapiens
CAKI-1 [11] = experiment: cells; settings: Homo sapiens
HCT-116 = experiment: cells; settings: Homo sapiens
SF-539 [12] = experiment: cells; settings: Homo sapiens
NCI-H226 [13] = experiment: cells; settings: Homo sapiens
[14] = system: MCF-7 (human breast cancer cells); experiment: cells; assay type: cell-based
Method: Cells were seeded in 96-well microtiter plates at densities of 1000 cells/well. The optimal seeding density was determined to ensure exponential growth in control wells throughout the experimental period and to obtain a linear relationship between absorbance at 492 nm and cell number when analyzed by the sulforhodamine B (SRB) assay (43). 24 hours after seeding the cells were incubated for 1 hour or continuously for 3 days with the drugs (concentration range 0.01 to 500 pM). The cells were washed once and then incubated in drug free medium for 6 days. At the end of the incubation cell growth was determined by the SRB assay, which quantifies viable cells by measuring their total cellular protein content. […] Similar studies were conducted against the growth of PC3 (human prostate cancer cells) and MCF-7 (human breast cancer cells).

[15] = system: K562 human chronic myeloid leukemia cells; experiment: cells; assay type: cell-based
Method: The cytotoxicity was determined using a MTT tetrazolium dye assay (42). […] The incubation was terminated by centrifugation (5 minutes, 300 g) and the cells were washed once with drug-free medium. Following the appropriate drug treatment, the cells were transferred to 96-well microtitre plates, 10^4 cells per well, 8 wells per sample. Plates were then kept in the dark at 37° C. in a humidified atmosphere containing 5% CO2. […] Following incubation of the plates for 4 days (to allow control cells to increase in number by 10 fold) 20 μL of a 5 mg/mL solution of MTT in phosphate buffered saline was added to each well and the plates further incubated for 5 hours. The plates were then centrifuged for 5 minutes at 300 g and the bulk of the medium pipetted from the cell pellet leaving 10-20 μL per well. 200 μL DMSO was added to each well and the samples agitated to ensure complete mixing. The optical density was the read at a wavelength of 550 nm on a Titertek Multiscan ELISA plate reader, and the dose-response curve was constructed.

MOLT-4 = experiment: cells; settings: Homo sapiens

In the case of “4-(2-Chloroethyl)-3-[5-(5-benzofuran-2-carboxamido)indole-2-carboxamido]phenol [Compound 1]”, the GI50 (LOX IMVI [1]) is reported as 2430 nM, the TGI (LOX IMVI [1]) is reported as 6.93E-06 Molar and the GI50 (SF-539 [2]) is reported as 1920 nM. For the same molecule, the TGI (SF-539 [2]) was 4.16E-06 Molar, the GI50 (SK-MEL-28) was 2400 nM and the TGI (SK-MEL-28) was 6.10E-06 Molar. It also gave a GI50 (SNB-75) of 18600 nM, a TGI (SNB-75) of 3.32E-05 Molar and a GI50 (HCT-15) of 1910 nM. It also gave a TGI (HCT-15) of 4.89E-06 Molar, a GI50 (NCI-H226 [3]) of 4090 nM and a TGI (NCI-H226 [3]) of 1.62E-05 Molar. For the same molecule, the GI50 (CAKI-1 [4]) was 2300 nM, the TGI (CAKI-1 [4]) was 7.19E-06 Molar and the GI50 (OVCAR-3) was 2130 nM. For the same molecule, the TGI (OVCAR-3) was 4.69E-06 Molar, the GI50 (BT-549) was 3600 nM and the TGI (BT-549) was 2.05E-05 Molar. The GI50 (DU-145) was 1120 nM, the TGI (DU-145) was 6.16E-06 Molar and the GI50 (MDA-MB-231/ATCC) was 2430 nM. For the same molecule, the TGI (MDA-MB-231/ATCC) was 7.10E-06 Molar, the “Percent Growth” value (MDA-MB-231/ATCC; Log10 Concentration (Molar) −4.0) was −65% and the “Percent Growth” value (MDA-MB-231/ATCC; Log10 Concentration (Molar) −6.0) was 92%. For the same molecule, the “Percent Growth” value (MDA-MB-231/ATCC; Log10 Concentration (Molar) −7.0) was 97%, the “Percent Growth” value (MDA-MB-231/ATCC; Log10 Concentration (Molar) −8.0) was 94% and the GI50 (MDA-MB-435) was 1890 nM. The TGI (MDA-MB-435) was 3.75E-06 Molar, the GI50 (SF-268 [5]) was 13400 nM and the TGI (SF-268 [5]) was 2.78e-05 Molar. For the same molecule, the GI50 (KM12) was 18800 nM, the TGI (KM12) was 3.50E-05 Molar and the GI50 (MCF7 [6]) was 1030 nM. The TGI (MCF7 [6]) was 2.27E-06 Molar, the GI50 (HCC-2998) was 1760 nM and the TGI (HCC-2998) was 3.56E-06 Molar. The GI50 (U251) was 2410 nM, the TGI (U251) was 1.23E-05 Molar and the GI50 (UACC-62) was 1970 nM. It also gave a TGI (UACC-62) of 3.49E-06 Molar.
For COC(=O)c1[nH]c2c(O)cc(NC(=O)c3cc4cc(OC)c(OC)c(OC)c4[nH]3)c(CCCl)c2c1C(=O)OC [Compound 22, Dimethyl 4-(2-chloroethyl)-7-hydroxy-5-(5,6,7-trimethoxyindole-2-carboxamido)indole-2,3-dicarboxylate], the GI50 (CCRF-CEM) was 31.8 nM, the CC50 (CCRF-CEM; read-out: LC50) was greater than 50000 nM and the “cytotoxic activity in the NCI screen” value [7] was “activity in the micromolar range”. For the same molecule, the GI50 (MCF7 [8]; MCF7) was 22.4 nM, the CC50 (MCF7 [8]; MCF7, read-out: LC50) was 47500 nM and the GI50 (SK-OV-3; SK-OV-3) was 269 nM. It also gave a CC50 (SK-OV-3; SK-OV-3, read-out: LC50) of 44600 nM, a GI50 (TK-10; TK-10) of 272 nM and a CC50 (TK-10; TK-10, read-out: LC50) greater than 50000 nM. It also gave a GI50 (SK-MEL-5; SK-MEL-5) of 32.3 nM, a CC50 (SK-MEL-5; SK-MEL-5, read-out: LC50) greater than 50000 nM and a GI50 (SF-268 [9]; SF-268) of 13.8 nM. The CC50 (SF-268 [9]; SF-268, read-out: LC50) was 1170 nM, the GI50 (LOX IMVI [10]) was 81.7 nM and the CC50 (LOX IMVI [10]; read-out: LC50) was 25600 nM. For the same molecule, the GI50 (CAKI-1 [11]; CAKI-1) was 147 nM, the CC50 (CAKI-1 [11]; CAKI-1, read-out: LC50) was greater than 50000 nM and the GI50 (HCT-116; HCT-116) was 65.6 nM. The CC50 (HCT-116; HCT-116, read-out: LC50) was 33200 nM, the GI50 (SF-539 [12]; SF-539) was 80.4 nM and the CC50 (SF-539 [12]; SF-539, read-out: LC50) was 608 nM. The GI50 (NCI-H226 [13]; NCI-H226) was 74.8 nM, the CC50 (NCI-H226 [13]; NCI-H226, read-out: LC50) was 2550 nM and the IC50 ([14]; MCF7, MCF-7, 1 hour exposure) was 970 nM. The IC50 ([14]; MCF7, MCF-7, Continuous exposure) was 130 nM, the IC50 ([15]; 1 hour exposure) was 310 ± 220 nM and the IC50 ([15]; 72 h, continuous exposure (3 days)) was 250 ± 96 nM. The GI50 (MOLT-4; MOLT-4) was 10.5 nM and the CC50 (MOLT-4; MOLT-4, read-out: LC50) was greater than 50000 nM.
